The nature of data set [1]: Protein binding in human serum. In kind it is ADME, cell-free. The note with it: read-out: PB (converted).
The nature of data set [2]: Oral bioavailability in BALB/c mouse at 10 mg/kg. In kind it is ADME, organism-based. Particulars: in vivo.
The target in data set [3] is Serine/threonine-protein kinase STK11 (Homo sapiens) (UniProt Q15831). The data set is described as follows: Inhibition of wild-type human full length LKB1 (M1 to Q433 residues) expressed in bacterial expression system assessed as residual activity at 50 nM by Kinomescan method relative to control.
Chain of Serine/threonine-protein kinase STK11 (Homo sapiens) (Q15831 whole entry, the tested form may be a part): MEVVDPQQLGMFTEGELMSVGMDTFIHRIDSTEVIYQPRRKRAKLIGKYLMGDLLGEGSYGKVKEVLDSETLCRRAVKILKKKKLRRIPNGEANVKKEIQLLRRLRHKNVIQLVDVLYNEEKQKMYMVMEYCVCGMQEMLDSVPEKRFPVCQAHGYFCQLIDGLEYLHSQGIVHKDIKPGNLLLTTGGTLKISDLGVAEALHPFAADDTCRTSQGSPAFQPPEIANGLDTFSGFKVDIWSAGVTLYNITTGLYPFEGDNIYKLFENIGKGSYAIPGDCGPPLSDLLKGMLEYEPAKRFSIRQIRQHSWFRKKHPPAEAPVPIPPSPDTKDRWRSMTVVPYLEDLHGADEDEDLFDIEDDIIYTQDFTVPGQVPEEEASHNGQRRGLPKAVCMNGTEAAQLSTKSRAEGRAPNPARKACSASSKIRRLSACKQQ

On to `CC1(C)[C@H](Nc2c(C(N)=O)cnn3cc(-c4ccccc4)cc23)CC[C@]1(C)N`, for which the fraction unbound in data set [1] was 0.52.

`COc1ccc(-c2cc3c(N[C@@H]4CC[C@](C)(N)C4(C)C)c(C(N)=O)cnn3c2)cn1`: the bioavailability (commonly dose-corrected exposure relative to a reference, in per cent) in data set [2] amounted to 73%. Besides, the Activity in data set [3] is 100%.

The values are drawn from ChEMBL document CHEMBL4052645, “Discovery of potent and efficacious pyrrolopyridazines as dual JAK1/3 inhibitors” (Bioorg Med Chem Lett, 2017).
